# From patent US20090099195A1 (ASTRAZENECA AB, priority 2007, published 2009)
# Biological target: T1, hP2X3 (human Purinergic P2X receptors subtype 3), clone B (Homo sapiens, UniProt P56373)
# T1 sequence (P56373 1-397): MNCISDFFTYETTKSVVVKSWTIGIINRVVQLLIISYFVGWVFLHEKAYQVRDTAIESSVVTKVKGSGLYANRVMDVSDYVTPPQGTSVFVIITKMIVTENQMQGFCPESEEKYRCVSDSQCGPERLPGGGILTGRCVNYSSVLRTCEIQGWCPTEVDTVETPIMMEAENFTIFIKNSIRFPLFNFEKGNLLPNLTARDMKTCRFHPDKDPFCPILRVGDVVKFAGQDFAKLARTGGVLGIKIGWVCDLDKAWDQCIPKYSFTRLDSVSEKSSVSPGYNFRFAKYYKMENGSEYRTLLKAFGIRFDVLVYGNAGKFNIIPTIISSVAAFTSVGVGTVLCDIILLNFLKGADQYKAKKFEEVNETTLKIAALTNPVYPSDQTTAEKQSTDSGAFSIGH
# Experiment: hP2X3 FLIPR calcium (Fluo-4) antagonist assay, clone B
# Settings: Human P2X3 FLIPR Clone B IC50 (nM), RLE cells expressing hP2X3 clone B (NM_002559); agonist 500 nM α,β-methylene-ATP
# Method: The assay used a calcium indicator dye (Fluo-4) that emits fluorescence, the intensity of which is related to the concentration of calcium that entered the cell when P2X3 was activated and the channel opened. Activation of hP2X3 or rat P2X3 and rat P2X2/3 (from the coexpression of rat P2X3 and rat P2×2) is elicited the by P2X3 agonist α,β methylene-ATP (Sigma M6517), and the resulting fluorescence is measured with a FLIPR II™ instrument (Molecular Devices). Compounds are tested for their ability to inhibit the agonist-induced fluorescent signal.
# For the rat P2X2/3 HEK-TREX cells, induction of the rat P2X3 expression is used to generate the rat P2X2/3 channels in HEK-TREX cells and performed by addition of 1 μg/mL tetracycline (Invitrogen) 24 h prior to compounds testing to the HEK-TREX expressing the rat P2X2 constitutively. On the day of the experiment, the cells and test compounds are prepared as follows. […] After preparing the compounds, the medium is removed from the cell plates by inversion. A loading solution of 30 μL assay buffer containing 4 μM of the calcium indicator dye FLUO-4 AM (Molecular Probes F14202) is added to each well using a Multidrop (Labsystems). […] The incubation is terminated by washing the cells four times in assay buffer using a Skatron Embla (Molecular Devices), and 25 μL of assay buffer was left in each well. Cell plates are then transferred to the FLIPR. Experiments are initiated by measuring a baseline fluorescence reading for 10 seconds, followed by the addition of 12.5 μL of cpds and data sampling for a total 280 seconds. The experiments are terminated by addition of 12.5 μL of a reference agonist (500 nM α,β-methylene-ATP) or buffer, producing a final assay volume of 50 μL followed by data sampling for an additional 280 seconds.
# In P2X3 antagonist experiments (human and rat assays) data are analysed as normalised maximal peak fluorescence monitored following agonist addition and calculated as percent of relative fluorescent counts from control agonist. The dose-response antagonist inhibition curves are analyzed in a 4-parameter sigmoidal fit using a non-linear curve-fitting program (XLfit version 5.0.6, ID Business Solutions Limited, Guildford, UK).
row,SMILES,IC50 [nM]
1,"CC(=O)N1CCN(c2nc(NC(C)(C)Cc3ccc(F)cc3)c3c(n2)C(=O)N(C2CCOCC2)C3)CC1 [Example 305, 3-(4-acetylpiperazin-1-yl)-5-[[1-(4-fluorophenyl)-2-methyl-propan-2-yl]amino]-8-(oxan-4-yl)-2,4,8-triazabicyclo[4.3.0]nona-1,3,5-trien-9-one]",2400
2,"CCOc1ccc([C@@H](C)Nc2nc(N3CCN(C(C)=O)CC3)nc3c2CN(C(C)C)C3=O)c(C)c1 [Example 168, (R)-2-(4-acetylpiperazin-1-yl)-4-(1-(4-ethoxy-2-methylphenyl)ethylamino)-6-isopropyl-5H-pyrrolo[3,4-d]pyrimidin-7(6H)-one]",80
3,"CC(C)N1Cc2c(NC(c3ccc(F)cc3)c3ccc(F)cc3)nc(NCCN(C)C)nc2C1=O [Example 17, 4-{[bis(4-fluorophenyl)methyl]amino}-2-{[2-(dimethylamino)ethyl]amino}-6-isopropyl-5,6-dihydro-7H-pyrrolo[3,4-d]pyrimidin-7-one]",70
4,"CC(=O)N1CCN(c2nc(NCc3cnc4ccccc4c3)c3c(n2)C(=O)N(C(C)C)C3)C[C@H]1C [Example 328, (R)-2-(4-acetyl-3-methylpiperazin-1-yl)-6-isopropyl-4-(quinolin-3-ylmethylamino)-5H-pyrrolo[3,4-d]pyrimidin-7(6H)-one]",62
5,"CCC(Nc1nc(N2CCN(C(C)=O)CC2)nc2c1CN(C(C)C)C2=O)c1ccc(C)cc1 (stereo not shown) [Example 36, 2-(4-acetylpiperazin-1-yl)-6-isopropyl-4-{[1-(4-methylphenyl)propyl]amino}-5,6-dihydro-7H-pyrrolo[3,4-d]pyrimidin-7-one]",1800
6,"CC(C)N1Cc2c(NCc3cnc4ccccc4c3)nc(N(C)CC3CCCO3)nc2C1=O (stereo not shown) [Example 217, 6-isopropyl-2-(methyl-(tetrahydrofuran-2-ylmethyl)amino)-4-(3-quinolylmethylamino)-5H-pyrrolo[3,4-d]pyrimidin-7-one]",5900
7,"CC(=O)N1CCN(c2nc(NC(C)c3nc(-c4ccccc4)no3)c3c(n2)C(=O)N(C(C)C)C3)CC1 (stereo not shown) [Example 13, 2-(4-acetylpiperazin-1-yl)-6-isopropyl-4-{[1-(3-phenyl-1,2,4-oxadiazol-5-yl)ethyl]amino}-5,6-dihydro-7H-pyrrolo[3,4-d]pyrimidin-7-one]",220
8,"CC(C)N1Cc2c(NCc3cnc4ccccc4c3)nc(N3CCC(N(C)C)C3)nc2C1=O (stereo not shown) [Example 213, 2-(3-dimethylaminopyrrolidin-1-yl)-6-isopropyl-4-(3-quinolylmethylamino)-5H-pyrrolo[3,4-d]pyrimidin-7-one]",1100
9,"CCN1CCN(c2nc(NC(c3ccccc3)c3ccccn3)c3c(n2)C(=O)N(C(C)C)C3)CC1 (stereo not shown) [Example 119, 2-(4-ethylpiperazin-1-yl)-6-isopropyl-4-{[phenyl(pyridin-2-yl)methyl]amino}-5,6-dihydro-7H-pyrrolo[3,4-d]pyrimidin-7-one]",3200
10,CC(C)N1Cc2c(NCc3cnc4ccccc4c3)nc(N3CCC(N(C)C)CC3)nc2C1=O [Example 218],7800
11,"CC(=O)N1CCN(c2nc3c(c(N4CCCC4c4ccc(N(C)C)cc4)n2)CN(C(C)C)C3=O)CC1 (stereo not shown) [Example 267, 4-(4-acetylpiperazin-1-yl)-2-[2-(4-dimethylaminophenyl)pyrrolidin-1-yl]-8-propan-2-yl-3,5,8-triazabicyclo[4.3.0]nona-1,3,5-trien-7-one]",480
12,"CC(C)N1Cc2c(Nc3ccc(Cl)cc3)nc(N3CCN(C(=O)CC4NC(=O)NC4=O)CC3)nc2C1=O (stereo not shown) [Example 31, 5-[2-(4-{4-[(4-chlorophenyl)amino]-6-isopropyl-7-oxo-6,7-dihydro-5H-pyrrolo[3,4-d]pyrimidin-2-yl}piperazin-1-yl)-2-oxoethyl]imidazolidine-2,4-dione]",270
13,"CC(C)N1Cc2c(NC(c3ccccc3)c3ccccc3)nc(NCc3cccnc3)nc2C1=O [Example 94, 4-(Benzhydryl-amino)-6-isopropyl-2-[(pyridin-3-ylmethyl)-amino]-5,6-dihydro-pyrrolo[3,4-d]pyrimidin-7-one]",250
